For `COc1c(C=NO)ccc(Cl)c1Cl`, the melting point was 82 to 83 °C. The compound `CC1(Br)Cc2cc(C(=O)O)ccc2C1=O` (centres undefined) showed a melting point of 203 to 205 °C. As for `COC(=O)c1cccnc1CN1C(=O)C(NC(=O)Nc2cccc(C)c2)N=C(c2ccccc2F)c2ccccc21` (racemic), the figure is 171 to 175 °C; as for `CCOP(=O)(CC(=O)NC1CC1)OCC`, 51 to 56 °C; as for `CC(Cl)=Cc1ccc([N+](=O)[O-])o1`, 55 to 65 °C. On to `N#CC(=C1CSc2ccccc2N1)c1ccc(Cl)cc1`, for which the melting point fell in the range of 137 to 139 °C. In turn, `NC1N=CC=CC1(N)Br` (centres undefined) showed a melting point of 158 to 160 °C. Consider `O=c1[nH]nc(OCC2c3ccccc3-c3ccccc32)o1`, for which the melting point was determined as 125 °C. In turn, `N#CC1(C#N)CCOCC1` showed a melting point of 110 to 112 °C.

Compound `CCC1C(c2ccc(OC(Cl)C(=O)O)cc2Cl)=CC(=O)CC1C` (centres undefined) displayed a melting point of 183 °C. In turn, `CC1(C(O)=Nc2cc(Cl)cc(Cl)c2)CC(F)C1(C)C(=O)O` (centres undefined) showed a melting point of 122 to 123 °C. `COc1ccccc1N1CCN(CC(=O)Nc2ccc3c(c2NC(=O)c2ccc(C)cc2)C(=O)c2ccccc2C3=O)CC1` registered a melting point of 215 to 216 °C. The compound `COc1ccc(COc2cc(C)nc3c(O)cccc23)cc1OC` registered a melting point of 129 to 131 °C.

In turn, `CC(=O)C(=CNc1cc(Cl)c(Cl)c(C(=O)O)c1Cl)C(C)=O` returned a melting point of 242 to 244 °C. `CC1(C)CCCC(NC(=O)OC(C)(C)C)C(=O)N1` (centres undefined) returned a melting point of 118 to 120 °C.

In turn, `O=C1CCN(Cc2ncccc2O)CC1C(c1ccccc1)c1ccccc1` (centres undefined) yielded a melting point of 121 to 122 °C. For the compound `COc1ccc(COc2c(C)c(C)c3c(c2C)C(c2ccc(C(C)C)cc2)C(C)(C)O3)cc1` (centres undefined), the melting point fell in the range of 95 to 96 °C. `O=C1c2ccccc2N(N2CCCCCC2)C2=NCCN12`: the melting point lay in the range of 206 to 208 °C. The compound `CCCCC[C@H]1CC[C@H](c2ncc(-c3ccc(CCCC)cc3)cn2)CC1` registered a melting point of 87 °C.

For the compound `N#Cc1ccc(S(=O)(=O)n2ccc3ccccc32)cc1C#N`, the melting point is 171 to 173 °C. Compound `O=C(Nc1nc(C(Cl)(Cl)Cl)ns1)C(F)(F)F` came in with a melting point of 116 °C. `COc1cccc(NC(=O)NCC(=O)N(CC(=O)N2CCCC(C)(C)C2)c2ccccc2)c1` gave a melting point of 200 °C. As for `CS(=O)(=O)NC(=O)c1cccc(-c2ccc(Cl)c(C(=O)NCC34CC5CC(CC(C5)C3)C4)c2)n1`, the figure is 160 to 162 °C; as for `COc1ccc(CN(C)CCCSc2ccc(NC(=O)c3cccc4c(=O)c5ccccc5sc34)cc2)cc1OC`, 148 °C. As for `O=S(=O)(Nc1cccc2cc(-c3ncc(CO)s3)[nH]c12)c1cccs1`, the figure is 209 to 210 °C. `COc1cc2c(=O)c(Cc3cccnc3)cn3c4cc(Br)ccc4c(c1)c23` yielded a melting point of 169 to 172 °C. In the case of `CCN(CC)c1ccc(N(c2ccc(N(C)C)cc2)C2(c3ccc(N(CC)CC)cc3C)OC(=O)c3ccccc32)cc1` (centres undefined), the melting point lay in the range of 68 to 83 °C. With `c1ccc(Cc2cccnn2)cc1`, the melting point lay in the range of 61 to 64 °C. As for `Cc1ccc(NS(=O)(=O)c2ccc(Cl)nc2)c2[nH]cc(C#N)c12`, the figure is 262 to 263 °C; as for `Cn1c2ccccc2c(=O)c2ccc(Cl)n21`, 88.5 to 90.5 °C; as for `Cc1cccc(NC(=O)NCC(=O)N(CC(=O)OC(C)(C)C)c2cccc(C(F)(F)F)c2)c1`, 140 °C.

`COc1ccc(-c2cc(=O)n(CC3CC3)nc2-c2ccc(OC)c(F)c2)cc1`: the melting point is 132 to 133 °C. In the case of `Cc1cc([N+](=O)[O-])c(NCC(C)O)c([N+](=O)[O-])c1` (centres undefined), the melting point is 80 °C.

Turning to `CCCn1c(=O)c2nc(C(C)Cc3ccc(OCC(=O)NCCN)cc3)[nH]c2n(CCC)c1=O` (centres undefined), the melting point was 143 to 144 °C.

Compound `CN1C(=O)N(c2cc(Cl)cc(Cl)c2)C(=O)[C@]12CN(Cc1cc(C(=O)O)cs1)C[C@H]2c1ccc(C#N)cc1` (relative stereo) showed a melting point of 188 °C. Consider `Cn1c(=O)sc2nc(-c3ccccc3)cn2c1=O`, for which the melting point was 228 to 229 °C. In the case of `CCOC(=O)C1CC(=O)C(C(=O)CC)C(=O)C1` (centres undefined), the melting point is 55 to 56 °C. As for `CCOC(=O)c1c(S(C)(=O)=O)nc2sccn12`, the figure is 158 to 161 °C; as for `O=C(O)[C@@H]1CSC(=O)N1Cc1ccccc1`, 95 to 97 °C. On to `CC(C)(O)c1cnn2c(-c3ccc(F)c(-c4ccncc4)c3)cnc2n1`, for which the melting point is 233 to 237 °C. Consider `CC(C)(C)OC(=O)NNC(=O)c1cc(OCc2ccccc2)c(OCc2ccccc2)c(CSc2ccncc2)n1`, for which the melting point lay in the range of 181 to 182 °C. In the case of `CC(=O)n1c2ccccc2c2ccc(C(=O)CCl)cc21`, the melting point lay within 175 to 176 °C.

The compound `C=CCc1c(C=O)cccc1OCc1ccccc1` gave a melting point of 66 to 67 °C. As for `CCC(C)N(C(=O)c1ccccc1C(N)=O)c1ccc(Cn2nnn(-c3ccc(C(F)(F)F)cc3)c2=O)cc1C` (centres undefined), the melting point was in the range of 217 to 218 °C.

Compound `CSc1ccc(Br)cc1C(=O)Cn1cccc1` registered a melting point of 138 to 139 °C. With `CCOC(=O)c1cnn(-c2ccc(Cl)cc2Cl)c1C(F)(F)F`, the melting point was in the range of 81 to 83 °C.

The compound `Cn1c(CNC(=O)c2ccc3ccccc3c2)nc(-c2ccncn2)cc1=O` came in with a melting point of 250 to 252 °C. For `CC(CCOc1ccccc1NS(C)(=O)=O)N1CCC(OC(c2ccccc2)c2cccs2)CC1` (centres undefined), the melting point lay in the range of 100 to 102 °C. For `CC(=O)NCC1CN(c2ccc(N3CCC(n4cc(C5(C)CO5)nn4)CC3)c(F)c2)C(=O)O1` (centres undefined), the melting point lay within 158 to 160 °C. `CCNC(=O)Nc1cc(-c2c(-c3ccc(F)c(C)c3)nc3c(C)cc(Cl)nn23)ccn1` had a melting point of 229 to 230 °C. On to `CC(C)(O)C#Cc1ccc2c(c1)NC(=O)CC(c1cccc(C#N)c1)=N2`, for which the melting point came out at 243 °C. As for `C=CCCONC(=O)c1nc(-c2ccc(Cl)c(OC)c2F)cc(N)c1Cl`, the figure is 141 to 143 °C; as for `COC(=O)C1Cc2cc(Br)ccc2N1C(=O)c1ccccc1` (centres undefined), 168 to 169 °C; as for `O=S(=O)(Cl)c1cc(Cl)c(Cl)c(S(=O)(=O)Cl)c1`, 114 to 115 °C. As for `Cc1nc2c(Br)cc(Br)cn2c1C`, the melting point is greater than 90 °C. Turning to `COc1ccc(C2(C#N)CCC(=NO)CC2)cc1OC1CCCC1` (centres undefined), the melting point lay in the range of 50 to 53 °C.

As for `CC(C)=CCOc1ccc(C2=C(CC(C)C)C(=O)NC2=O)cc1`, the melting point was 110 to 111 °C. Regarding `Cc1[nH]c(=O)c(C#N)c2c1CC(c1cccnc1)CC2` (centres undefined), the melting point was greater than 300 °C. With `CCCCc1nc2cc(Cl)cc(C(=O)O)c2n1C(C)c1ccc(C(=O)O)cc1` (centres undefined), the melting point lay in the range of 312 to 315 °C. `CCCCc1nc2c(N)nc3cccnc3c2n1CCCCN1CC=Cc2cc(C(N)=O)ccc21` showed a melting point of 190 to 191 °C. As to `CCC(C)c1nn(-c2ccc(C(F)(F)F)cn2)cc1CO` (centres undefined), the melting point lay in the range of 76 to 77 °C.

Compound `O=C(O)c1ccc(OCCCCCCc2ccc3cc(O)c(O)cc3c2)cc1` had a melting point of 160 to 162 °C. `C=CCOc1cccc(C(C)=O)c1O`: the melting point fell in the range of 51 to 52 °C. As for `COc1nc(C(F)(F)F)cc(=O)n1-c1cc(C(=O)O)c(Cl)cc1F`, the figure is 205 to 210 °C. In turn, `CCCCC(=O)c1c(C(C)(C)C)cc(C=[N+]([O-])C(C)(C)C)cc1C(C)(C)C` had a melting point of 196 to 205 °C. The compound `O=c1[nH]c2ccc(C3CCNCC3)cc2[nH]1` gave a melting point of 214 to 215 °C. With `N#Cc1cnc2cc(Br)ccc2c1Nc1ccc(Cc2ccccc2)cc1`, the melting point was 195 to 197 °C.

Compound `CCOC(=O)Cc1ccc([N+](=O)[O-])c(OCC(F)(F)F)c1` yielded a melting point of 76 to 77 °C. As for `COc1cccc(CN2CC(=O)Nc3ncc(-c4ccc(O)cc4)nc32)c1`, the figure is 282 to 283 °C; as for `CCCCC(=O)N[C@H]1CC[C@H](CCN2CCC(c3cccc4c3CCO4)CC2)CC1`, 186 °C; as for `CS(=O)(=O)c1cc(Cl)ccc1C(=O)c1cnoc1C1CC1`, 183 to 185 °C. Take `COc1ccccc1-n1c(=O)[nH]c2c(C(N)=O)nc(NCCO)nc21`: the melting point was 157 to 160 °C. The compound `COc1cc2nc(N)nc(-c3ccccc3I)c2cc1OC` gave a melting point of 225 to 230 °C. `O=C(O)c1ccc(-c2nn(-c3ccccc3C(=O)O)c3ccc([N+](=O)[O-])cc23)cc1` yielded a melting point of 348 to 350 °C. As for `Nc1nc(N)c2cc(S(=O)(=O)c3ccc(Cl)c(Cl)c3)ccc2n1`, the figure is 286 to 289 °C; as for `COc1cc2c(cc1OC)C(=CO)C(=O)N2`, 216 to 217 °C; as for `CC(C)(C)OC(=O)NC[C@H]1CN(c2ccc3c(c2)CCCCC3=O)C(=O)O1`, 155 to 157 °C. Turning to `CC(C)CCC1C(=O)N(c2c(F)c(F)nc(F)c2F)S(=O)(=O)N1C` (centres undefined), the melting point is 80.5 to 81.5 °C. In the case of `O=C(Nc1ccccc1S(=O)(=O)N1CCCCC1)N[C@@H](Cc1ccc(NC(=O)c2c(Cl)cncc2Cl)cc1)C(=O)O`, the melting point was found to be 223 °C.

The compound `CC[C@H](C)COc1ccc(O)cc1` registered a melting point of 44 to 45 °C.

`COC(=O)c1scc(Cl)c1O` yielded a melting point of 78 °C. With `O=C(Nc1ccc(F)cc1)Oc1ccc2c(c1)N(Cc1ccccc1)CCC2`, the melting point is 130 °C. In the case of `Cc1ccc(Oc2c(C)c(NC(=O)CC(C)(C)C)c(C)c3c2OC(C)(C)C3)cc1`, the melting point lay in the range of 182 to 184 °C. `Cc1cnc2ccc(NC3=NCCN3)c(Br)c2n1`: the melting point is greater than 260 °C. Compound `COC(=O)c1cc2c(nc1C)C(CBr)CCCC2` (centres undefined) yielded a melting point of 66 to 67 °C. With `O=S(=O)(Nc1cccc(CCOCc2csc(-c3ccc(C(F)(F)F)cn3)n2)c1)C(F)(F)F`, the melting point was in the range of 116 to 117 °C. In turn, `COc1cc2c(cc1O)CCN(Cc1cccc(C(C)=O)c1)C2` showed a melting point of 132 to 134 °C. `Cc1cc(F)ccc1-c1cc(OC2SCC(O)C(O)C2O)ccn1` (centres undefined) showed a melting point of 147 °C. As to `C=C1CC2C(CCC3(C)C2CCC3(OC(C)=O)C(=O)COC(C)=O)C2(C)CCC(=O)C=C12` (centres undefined), the melting point lay in the range of 227 to 228 °C.

(Values after a melting point compilation (Tetko et al.; mined from patent text by program, amines drawn as free bases though some values may be those of a salt).)
